From patent US12012394B2, “Alpha-synuclein ligands” (Washington University, priority 2018, dated 2024)
“And” between values parts separate entries of the source, which are not always exact repeats. Equal values may be shown once.

What was measured:
α-synuclein fibrils = α-synuclein fibrils (Homo sapiens (Human), UniProt P37840); experiment: Thioflavin T fluorescence competitive assay; conditions: for Ki: read-out: Thioflavin T assay Ki, competition with ThT on recombinant α-synuclein fibrils, at least three experiments
Procedure: α-Synuclein recombinant protein was produced in E. coli. BL21(DE3)RIL E. coli were transformed with a pRK172 bacterial expression plasmid containing the human α-synuclein coding sequence. […] Overnight cultures were pelleted by centrifugation at 3,900×g for 10 min at 25° C. Bacterial pellets were resuspended in 20 mL osmotic shock buffer (30 mM Tris-HCl, 2 mM EDTA, 40% sucrose, pH 7.2) by gentle vortexing and incubated at room temperature for 10 minutes. The cell suspension was then centrifuged at 8,000×g for 10 min at 25° C. and the pellet was resuspended in 22.5 mL cold H2O before adding 9.4 μL 2 M MgCl2 to each tube. The suspension was incubated on ice for 3 min prior to centrifugation at 20,000×g for 15 min at 4° C. The supernatant was transferred to a fresh tube, streptomyocin was added to a final concentration of 10 mg/mL, and then centrifuged at 20,000×g for 15 min at 4° C. The supernatant from this step was collected and dithiothreitol (DTT) and Tris-HCl were added to final concentrations of 1 mM and 20 mM respectively, before boiling for 10 min to precipitate heat-sensitive proteins, which were pelleted at 20,000×g for 15 minutes at 4° C. The supernatant was collected and filtered through a 0.45 μm surfactant free cellulose acetate filter (Corning, Corning, NY) before loading onto a 1 mL DEAE Sepharose column equilibrated in 20 mM Tris-HCl pH 8, 1 mM EDTA, and 1 mM DTT. The DEAE column was washed with 20 mM Tris-HCl pH 8, 1 mM EDTA, 1 mM DTT before eluting α-synuclein protein in 20 mM Tris-HCl, pH 8, buffer with 1 mM EDTA, 1 mM DTT and 0.3 M NaCl. The purified α-synuclein protein was dialyzed overnight in 10 mM Tris-HCl, pH 7.6, 50 mM NaCl, and 1 mM DTT.
The purified, recombinant α-synuclein monomer (2 mg/mL) was incubated in Tris-HCl (20 mM) and NaCl (100 mM) while shaking at 1000 rpm in an Eppendorf Thermomixer in a 37° C. temperature-controlled room for 72 hours. To determine the concentration of fibrils, the reaction mixture (100 μL) was centrifuged at 18,000×g for 10 minutes to separate fibrils from monomer. The α-synuclein monomer and other soluble proteins in the supernatant were removed, and the fibril pellet was resuspended in 100 μL solution of Tris-HCl (20 mM) and NaCl (100 mM). This fibril suspension was used in a bicinchoninic acid (BCA) protein assay along with a bovine serum albumin (BSA) standard curve to determine the concentration of fibrils in the 72 hour fibril reaction mixture.
To prepare the fibrils for performing binding assays, the fibril reaction mixture prepared above was centrifuged at 18,000×g for 10 minutes. The supernatant was discarded and the fibril pellet was resuspended in Tris-HCl buffer (30 nM, pH=7.4) to achieve the desired concentration (3 or 6 μM) of fibrils for use in the assay.
The ThT solution (6 μM) in Tris-HCl buffer (30 nM, pH=7.4, 40 μL) was added to each of three cells in a 96 cell plate for fluorescence detection containing α-synuclein fibrils suspension (3.0 μM) in the Tris-HCl buffer (30 nM, pH=7.4, 40 μL). The mixture was incubated at room temperature for 1 hour on the shaking plate. The reaction plate was scanned by the excitation wavelength range from 430 to 465 nm. The maximum excitation wavelength (λex) was determined according to the fluorescent intensity-excitation wavelength curve.

Fibrils 4174 = Fibrils 4174 (Homo sapiens, UniProt P37840); experiment: 3H radioligand competition, Fibrils 4174; type: binding; conditions: hot concentration 2 nM
Procedure: (§1) A series of compounds were synthesized and the Ki (nM) in the presence of Fibrils 4174, PD-seeded fibrils (using Tg-1-90B as the radioligand), AD Tissue 6843 and/or AD Tissue 2846 was determined. In each experiment, the “hot” concentration was 2 nM.

AD Tissue 6843 = experiment: 3H radioligand competition, AD Tissue 6843; type: binding; conditions: hot concentration 2 nM
Procedure: as §1

PD-seeded fibrils [1] = biological target: T1, PD-seeded fibrils (Homo sapiens (Human), UniProt P37840); experiment: Radioligand competition, PD-seeded fibrils (Tg-1-90B as radioligand); type: binding; conditions: PD-seeded fibrils (Tg-1-90B radioligand); hot concentration 2 nM
Procedure: as §1

AD Tissue 2846 = experiment: 3H radioligand competition, AD Tissue 2846; type: binding; conditions: hot concentration 2 nM
Procedure: as §1

[2] = biological target: Banner PD-seeded α-synuclein fibrils (Homo sapiens (Human), UniProt P37840); experiment: Homologous competition radioligand binding assay, PD-seeded fibrils
Procedure: The equilibrium dissociation constant (Kd) for a series of compounds was determined using direct radioactive competitive binding assays (homologous or heterologous) with either recombinant α-synuclein fibrils or brain tissue homogenates from AD cases.
Recombinant protein was produced in E. coli using protocols based on previously described methods for α-synuclein [Giasson, B. I., et al., “Mutant and wild type human alpha-synucleins assemble into elongated filaments with distinct morphologies in vitro,” 1999, J Biol. Chem., 274:7619-7622; Huang, C., et al., “A new method for purification of recombinant human alpha-synuclein in Escherichia coli,” 2005, Protein Expr Purif, 42:173-177; Yu, L., et al, “Synthesis and in vitro evaluation of á-synuclein ligands,” 2012, Bioorg. Med. Chem., 20:4625-4634] and tau [Li, W., et al., “Characterization of two VQIXXK motifs for tau fibrillization in vitro,” 2006, Biochemistry, 45:15692-15701]. BL21(DE3)RIL E. coli were transformed with a pRK172 bacterial expression plasmid containing the human α-synuclein coding sequence. […]. Overnight cultures were centrifuged at 3,900×g for 10 min at 25° C. and the bacterial pellets were resuspended by gentle vortexing in 20 ml osmotic shock buffer (30 mM Tris-HCl, 2 mM EDTA, 40% Sucrose, pH 7.2) and then incubated at room temperature for 10 min. The cell suspension was then centrifuged at 8,000×g for 10 min at 25° C. and the pellet was resuspended in 22.5 ml cold H2O before adding 9.4 μl 2 M MgCl2 to each tube. The suspension was incubated on ice for 3 min prior to centrifugation at 20,000×g for 15 min at 4° C. After the supernatant was transferred to a fresh tube, streptomycin was added to a final concentration of 10 mg/ml and centrifuged at 20,000×g for 15 min at 4° C. The supernatant from this step was collected and dithiothreitol (DTT) and Tris-HCl pH 8.0 were added to final concentrations of 1 mM and 20 mM respectively, before boiling for 10 min to precipitate heat-sensitive proteins, which were pelleted at 20,000×g for 15 min at 4° C. The supernatant was collected and filtered through a 0.45 μm surfactant-free cellulose acetate filter (Corning) before loading onto a 1 ml DEAE Sepharose column equilibrated in 20 mM Tris-HCl pH 8.0, 1 mM EDTA, and 1 mM DTT. The DEAE column was washed with 20 mM Tris-HCl pH 8.0, 1 mM EDTA, 1 mM DTT before eluting α-synuclein protein in 20 mM Tris-HCl pH 8.0 buffer with 1 mM EDTA, 1 mM DTT and 0.3 M NaCl. Purified α-synuclein protein was dialyzed overnight in 10 mM Tris-HCl pH 7.6, 50 mM NaCl, 1 mM DTT.
Purified recombinant α-synuclein monomer (2 mg/ml) was incubated in 20 mM Tris-HCl, pH 8.0, 100 mM NaCl for 72 h at 37 C with shaking at 1000 rpm in an Eppendorf Thermomixer. […] The concentration of α-synuclein monomer in the supernatant was determined in a BCA protein assay according to the manufacturer's instructions, using a bovine serum albumin (BSA) standard curve. The measured decrease in α-synuclein monomer concentration was used to determine the concentration of fibrils in the 72 h fibril reaction mixture. […]
These direct binding assays used a fixed concentration of either fibrils or PD/AD tissue and the radioligand (e.g., [^18F]28) and varying concentration ranges of corresponding homologous non-radiolabeled standard reference compound. […] Reactions were incubated at 37° C. for 1 h before quantifying bound radioligand. […]

[3] = MicroPET studies in the brain of nonhuman primate; type: in vivo; conditions: male adult cynomolgus macaca
Procedure: 9.93 mCi of [^18F]TZ61-44 was injected into a male adult cynomolgus macaca (9.25 Kg) 10.57 mCi of [^11C]TZ55-107 was injected into was injected into a male adult cynomolgus macaca (9.40 Kg) A simplified reference tissue model (SRTM) and spatially-constraint linear regression algorithm was used to generate R1 and DVR images (FIGS. 18A and 18B).
FIGS. 19A and 19B graphically depict the uptake of labeled TZ55-107 and TZ61-44 in the animals. [^18F]TZ61-44 had highest cortical uptake (SUV) of ˜3.48 at 4 min and the uptake ratio at 4 min versus 120 min reached ˜4.2 (FIG. 19A); [^11C]TZ55-107 had highest cortical uptake of ˜6.40 at 4 min, and the uptake ratio at 4 min versus 120 min reached ˜6.30 (FIG. 19B).

PD-seeded fibrils [4] = biological target: T1, PD-seeded fibrils; experiment: Heterologous competition binding assay with [18F]TZ61-44 as radioligand; conditions: radioligand [18F]TZ61-44, 25 nM PD-seeded fibrils; for Ki: Cheng-Prusoff from EC50
Procedure: The equilibrium inhibitor constant (Ki) of a series of compounds was measured using heterologous radioactive binding assays with [^18F]TZ61-44, […], or [^125I]TZ61-84 as the screening radioligands. EC50 values for each compound were determined by fitting the data to the equation Y=Bottom+(Top−Bottom)/(1+(X−Log EC50)^−Hillcoefficient) using nonlinear regression by Kaleidagraph software, where Top and Bottom are the Y values for the top and bottom plateaus of the binding curve. The Ki values were derived from the EC50 values using the Cheng-Prusoff equation: Ki=EC50/(1+[radioligand]/Kd). FIGS. 5A-5E show the inhibition curves for TG-1-90B, TZ55-101, TZ61-84, TZ55-107, and TZ55-81 using [^18F]TZ61-44 as the radioligand. FIG. 11B-C show the inhibition curves for two separate experiments on PD fibrils for TZ55-101 using […] as the radioligand. FIGS. 12A-12F show the inhibition curves for TZ66-3, TZ64-015, TZ64-016, TZ64-018, TZ64-019, and TZ64-020 using [^18F]TZ61-44 as the radioligand. FIGS. 13A-13D show the inhibition curves for TZ66-9, TZ66-8, and TZ55-107 using [^18F]TZ61-44 as the radioligand.

| SMILES | Ki (α-synuclein fibrils) | EC50 (PD-seeded fibrils [4]) | Ki (PD-seeded fibrils [4]) | other results |
| --- | --- | --- | --- | --- |
| COc1ccc2nc(-c3noc(-c4ccnc(OC)c4)n3)ccc2c1 [Compound 27, 5-(2-Methoxypyridin-4-yl)-3-(6-methoxyquinolin-2-yl)-1,2,4-oxadiazole] | 630 nM |  |  |  |
| COCOc1ccc2nc(-c3noc(-c4ccnc(OC)c4)n3)ccc2c1 [Compound 29, 3-(6-(Methoxymethoxy)quinolin-2-yl)-5-(2-methoxypyridin-4-yl)-1,2,4-oxadiazole] | > 1000 nM |  |  |  |
| COc1cc(-c2nc(-c3ccc4cc(OC(C)C)ccc4n3)no2)ccn1 [Compound 30, 3-(6-Isopropoxyquinolin-2-yl)-5-(2-methoxypyridin-4-yl)-1,2,4-oxadiazole] | > 1000 nM |  |  |  |
| COc1ccc2nc(-c3noc(-c4ccn5ccnc5c4)n3)ccc2c1 [Compound 31, 5-(Imidazo[1,2-c]pyridin-7-yl)-3-(6-methoxyquinolin-2-yl)-1,2,4-oxadiazole] | > 1000 nM |  |  |  |
| CC(C)Oc1ccc2nc(-c3noc(-c4ccn5ccnc5c4)n3)ccc2c1 [Compound 32, 5-(Imidazo[1,2-c]pyridin-7-yl)-3-(6-isopropoxyquinolin-2-yl)-1,2,4-oxadiazole] | > 1000 nM |  |  |  |
| FCCOc1ccc2nc(-c3noc(-c4ccn5ccnc5c4)n3)ccc2c1 [Compound 33, 3-(6-(2-Fluoroethoxy)quinolin-2-yl)-5-(imidazo[1,2-c]pyridin-7-yl)-1,2,4-oxadiazole] | > 1000 nM |  |  |  |
| COCOc1ccc2nc(-c3noc(-c4ccn5ccnc5c4)n3)ccc2c1 [Compound 34, 5-(Imidazo[1,2-c]pyridin-7-yl)-3-(6-(methoxymethoxy)-quinolin-2-yl)-1,2,4-oxadiazole] | > 1000 nM |  |  |  |
| COc1ccc2cc(-c3noc(-c4ccnc(F)c4)n3)ccc2c1 [TZ46-102] |  |  |  | Ki (Fibrils 4174): 203 nM |
| COc1ccc2nc(-c3noc(-c4cscn4)n3)ccc2c1 [TZ46-117] |  |  |  | Ki (Fibrils 4174): 156 nM |
| COc1ccc2nc(-c3noc(-c4cocn4)n3)ccc2c1 [TZ46-120] |  |  |  | Ki (Fibrils 4174): 646 nM |
| COc1ccc2nc(-c3noc(-c4ccc5c(c4)OCO5)n3)ccc2c1 [TZ46-136] |  |  |  | Ki (Fibrils 4174): 162 nM |
| COc1cccc(-c2nc(-c3ccc4cc(OC)ccc4n3)no2)c1 [TZ46-139] |  |  |  | Ki (Fibrils 4174): 222 nM |
| COc1ccc2nc(-c3noc(-c4ccc5ncccc5c4)n3)ccc2c1 [TZ46-147] |  |  |  | Ki (Fibrils 4174): 96 nM; Ki (AD Tissue 6843): 21 nM; Ki (PD-seeded fibrils [1]): 39 nM; Ki (AD Tissue 2846): 30 nM |
| COc1ccc2nc(-c3noc(-c4ccc(-n5ccnc5)cc4)n3)ccc2c1 [TZ46-155] |  |  |  | Ki (PD-seeded fibrils [1]): 230 nM |
| COc1ccc2nc(Nc3ccnc(OC)c3)ccc2c1 [TZ55-107] |  | 24 nM and 36 nM | 22 nM and 34 nM | binding affinity towards PD / α-synuclein fibrils ([2]; preliminary / initial competitive binding assays): good binding affinity; selectivity ([2]; preliminary binding assays): moderate selectivity; highest cortical uptake (SUV) ([3]; brain cortex, at 4 min): ~6.40 SUV; uptake ratio at 4 min versus 120 min ([3]; brain cortex): ~6.30; blood brain barrier penetration [3]: able to penetrate the blood brain barrier |
| COc1ccc(Nc2ccc3cc(F)ccc3n2)cn1 [TZ64-013] |  | 29 nM | 27 nM |  |

| SMILES | Ki (α-synuclein fibrils) | EC50 (PD-seeded fibrils [4]) | Ki (PD-seeded fibrils [4]) | other results |
| --- | --- | --- | --- | --- |
| COc1ccc(Nc2ccc3c(F)cccc3n2)cn1 [TZ64-015] |  | 46 nM | 43 nM |  |
| COc1ccc(Nc2ccc3cccc(F)c3n2)cn1 [TZ64-016] |  | 45 nM | 42 nM |  |
| COc1ccc2nc(-c3csc(C(C)=O)c3)ccc2c1 [TZ64-018] |  | 127 nM | 119 nM |  |
| COc1ccc2nc(-c3coc(C=O)c3)ccc2c1 [TZ64-019] |  | 28 nM | 27 nM |  |
| COc1ccc2nc(-c3coc(C=O)c3)ccc2c1 [TZ64-19] | 10.4 nM |  |  | potency in Thioflavin T assay (α-synuclein fibrils): high potency |
| COc1ccc2nc(-c3csc(C#N)c3)ccc2c1 [TZ64-020] |  | 37 nM | 34 nM |  |
| COc1ccc(Nc2ccc3cc([N+](=O)[O-])ccc3n2)cn1 [TZ64-55] | 15 nM |  |  | potency in Thioflavin T assay (α-synuclein fibrils): high potency |
| COc1ccc(Nc2ccc3c([N+](=O)[O-])cccc3n2)cn1 [TZ64-82] | 18 nM |  |  | potency in Thioflavin T assay (α-synuclein fibrils): high potency |
| COc1ccc2nc(Nc3coc(C=O)c3)ccc2c1 [TZ64-91] | 18 nM |  |  | potency in Thioflavin T assay (α-synuclein fibrils): high potency |
| COc1ccc(Nc2ccc3cc(I)ccc3n2)cn1 [TZ64-102] | 12 nM |  |  | potency in Thioflavin T assay (α-synuclein fibrils): high potency |
| COc1ccc(Nc2ccc3cc(Br)ccc3n2)cn1 [TZ64-105] | 10 nM |  |  | potency in Thioflavin T assay (α-synuclein fibrils): high potency |
| COc1ccc2nc(-c3csc(C(=O)O)c3)ccc2c1 [TZ66-3] |  | 78 nM | 73 nM |  |
| C=CCOCc1cc(-c2ccc3cc(OC)ccc3n2)cs1 [TZ66-8] |  | 73 nM | 68 nM |  |
| COCc1cc(-c2ccc3cc(OC)ccc3n2)cs1 [TZ66-9] |  | 84 nM | 78 nM |  |
| COc1ccc2nc(-c3csc(/C=N/O)c3)ccc2c1 [TZ66-16] | 11 nM |  |  | potency in Thioflavin T assay (α-synuclein fibrils): high potency |
| COC(=O)c1cc(-c2ccc3cc(OC)ccc3n2)cs1 [TZ66-25] | 17 nM |  |  | potency in Thioflavin T assay (α-synuclein fibrils): high potency |
